One data set concerns CWR22H tumor. The data set is described as follows: Biodistribution in CWR22H tumor bearing mice. Format: in vivo. The conditions noted are these: % Injected Dose/gram tissue, five days after single intravenous dose of 2 μmole (120 mg/kg) of prodrug. As for the experimental part: FIGS. 4A and 4B are (A) selective accumulation of 12ADT-Asp and 12ADT-Asp-Glu in tumor tissue compared to indicated normal tissue five days after single intravenous dose of 2 μmole (120 mg/kg) (FIG. 4A discloses “Asp-Glu*Glu*Glu*Glu” as SEQ ID NO: 57); and (B) biodistribution of TG species (sum of 12ADT-Asp, 12ADT-Asp-Glu and 12ADT-Asp-Glu*Glu*Glu*Glu (SEQ ID NO: 57)) in CWR22H tumor bearing mice. Data presented as % Initial dose (ID)/gram and tumor/tissue ratios (n=4 mice).
In the course of developing a PSMA-activated TG therapy, a prodrug that was readily hydrolyzed by PSMA and selectively toxic to PSMA-producing human prostate cancers in vitro and in vivo was identified. Tissue levels of the TG analog (12ADT-Asp) that is released from the peptide carrier by PSMA were analyzed. See, for example, FIG. 4A.
The characterization of 12ADT-Asp is described in detail below. This TG analog is even more lipophilic than TG due to substitution of the butanoyl side chain of TG with a 12 carbon aminododecanoyl side chain. While it might have been expected to see accumulation of this highly lipophilic 12ADT-Asp in tumor tissue due to PSMA activation, the magnitude of accumulation of the free drug compared to plasma was unexpected. […]

For another data set, the system named is SERCA. The data set is described as follows: SERCA inhibition compared to TG (preliminary / earlier data). Format: biochemical.
The nature of data set [1]: Peptide stability to hydrolysis in human plasma. Format: in vitro ADME. The source says:
(§1) Some preferred peptides include a PSMA-hydrolyzable, a-linked dipeptide “cap” that are not substrates for GGH, and are more specific PSMA substrates. Combination a- and side chain-linked PSMA substrates can be highly efficient and specific. […] A number of aspartate- and glutamate-containing linkers are depicted in FIG. 1. These particular linkers can be bonded to amine groups on therapeutic drugs.

The nature of data set [2]: Peptide stability to hydrolysis in mouse plasma. In kind it is in vitro ADME.
Description: as §1

A short description of data set [3]: Peptide stability in serum. In kind it is in vitro ADME.
Description: as §1

Data set [4] concerns LNCaP cells. The data set is described as follows: Cleavage assay with LNCaP cells, metabolites by LC/MS. Format: cell-based, human. The conditions noted are these: 3 days culture with drug.
The subject of data set [5] is LNCaP cells.
The target of data set [6] is sarcoplasmic reticulum (SR) and endoplasmic reticulum (ER) Ca2+-ATPase (SERCA) pump. The following applies: SERCA pump of skeletal, cardiac, muscle and brain microsomes; read-out: apparent dissociation constant; cited from earlier work.
The target of a further data set is T1, SERCA pump (Oryctolagus cuniculus, UniProt P04191).
T1 construct: from tissue; host or cells: microsomes
The data set is described as follows: Microsomal assay of SERCA pump inhibition compared to TG. Format: biochemical. As for the experimental part:
FIG. 6. Microsomal assay comparing inhibition of SERCA pump by compound 14 and TG over a range of concentrations.
All materials were purified by column chromatography with structure confirmed by NMR analysis and mass spectroscopy. The purified phenolic TG analog 14 was then tested in a previously described microsomal assay system to assess inhibition of the SERCA pump compared to TG, FIG. 6.

Results on nine molecules are retold here after patent US8772226B2, “Methods and compositions for the detection of cancer” (The Johns Hopkins University, priority 2009, dated 2014).

Starred links: 1 amine or outer side, 2 acyl side, 3 side chain; linkers in the order of their positions; H or OH if unused. Non-standard residues stand in square brackets, D forms with d. Residues, ends and D or L forms follow the SMILES beside them. No end group written: not given here. *: point of attachment. X1 = C/C=C(/C)C(=O)O[C@H]1C(C)=C2[C@H]([C@@H]1OC(=O)CCCCCCC)[C@@](C)(OC(C)=O)C[C@H](OC(=O)Cc1ccc(O)c(CCCCCN*)c1)[C@@]1(O)[C@H]2OC(=O)[C@@]1(C)O; γGlu = O=C(O)[C@H](CCC(=O)[*:2])N[*:1]; Morpholide = C1CN(*)CCO1; PhADT = not defined here; CO = O=C([*:1])[*:2]

Broadly, the IC50 is the concentration that gives 50% inhibition. Lower therefore signals higher potency.

T1 sequence (P04191 1-994 isoform P04191-2): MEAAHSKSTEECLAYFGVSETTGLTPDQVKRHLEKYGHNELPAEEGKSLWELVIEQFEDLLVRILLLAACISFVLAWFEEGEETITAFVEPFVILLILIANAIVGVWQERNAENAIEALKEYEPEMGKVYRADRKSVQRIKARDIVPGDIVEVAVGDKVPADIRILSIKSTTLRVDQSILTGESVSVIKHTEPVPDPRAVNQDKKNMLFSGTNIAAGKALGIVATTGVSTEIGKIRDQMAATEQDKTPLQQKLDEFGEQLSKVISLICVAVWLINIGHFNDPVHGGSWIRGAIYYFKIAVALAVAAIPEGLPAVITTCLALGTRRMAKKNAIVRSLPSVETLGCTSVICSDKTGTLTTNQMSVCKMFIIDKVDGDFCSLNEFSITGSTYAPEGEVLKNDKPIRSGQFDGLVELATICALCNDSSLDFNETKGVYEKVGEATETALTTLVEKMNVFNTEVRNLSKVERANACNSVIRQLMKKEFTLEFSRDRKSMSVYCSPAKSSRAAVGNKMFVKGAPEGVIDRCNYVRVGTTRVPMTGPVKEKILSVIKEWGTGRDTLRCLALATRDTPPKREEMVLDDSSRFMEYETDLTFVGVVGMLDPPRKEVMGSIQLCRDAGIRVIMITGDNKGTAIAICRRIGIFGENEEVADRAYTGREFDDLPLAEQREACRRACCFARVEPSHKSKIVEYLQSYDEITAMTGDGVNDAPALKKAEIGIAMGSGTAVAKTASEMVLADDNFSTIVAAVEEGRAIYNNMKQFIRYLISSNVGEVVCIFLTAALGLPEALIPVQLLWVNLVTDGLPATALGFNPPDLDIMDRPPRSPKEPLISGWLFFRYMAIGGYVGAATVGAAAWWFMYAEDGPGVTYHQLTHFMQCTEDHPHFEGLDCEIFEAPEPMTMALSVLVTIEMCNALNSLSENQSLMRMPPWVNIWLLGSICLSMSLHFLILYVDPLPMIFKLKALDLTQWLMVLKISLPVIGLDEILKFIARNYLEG

In the case of `C/C=C(/C)C(=O)O[C@H]1C(C)=C2[C@H]([C@@H]1OC(=O)CCCCCCC)[C@@](C)(OC(C)=O)C[C@H](OC(=O)CCCCCCCCCCCNC(=O)C[C@H](N)C(=O)O)[C@@]1(O)[C@H]2OC(=O)[C@@]1(C)O` [12ADT-Asp], in the data set with CWR22H tumor, the Tumor/Kidney ratio stood at 15.4 and the Tumor/Skeletal muscle ratio was 20.5. Regarding `C/C=C(/C)C(=O)O[C@H]1C(C)=C2[C@H]([C@@H]1OC(=O)CCCCCCC)[C@@](C)(OC(C)=O)C[C@H](OC(=O)CCCCCCCCCCCN)[C@@]1(O)[C@H]2OC(=O)[C@@]1(C)O` [12ADT], the “SERCA inhibition compared to TG” value with SERCA is on record as “as efficiently as does TG”. As to `N[C@@H](CC(=O)O)C(=O)N[C@@H](CCC(=O)N[C@@H](CCC(=O)N[C@@H](CC(=O)O)C(=O)N[C@@H](CCC(=O)O)C(=O)O)C(=O)O)C(=O)O` [Asp-Glu*Glu*Asp-Glu] (H-D[γGlu][γGlu]DE-OH; N-terminus and C-terminus assumed), the “stability to hydrolysis in plasma” value in [1] and in [2] was “completely stable to hydrolysis” in each case. Regarding `NC(=O)CC[C@H](NC(=O)[C@H](CC(=O)O)NC(=O)CC[C@H](NC(=O)CC[C@H](NC(=O)CC[C@H](N)C(=O)O)C(=O)O)C(=O)O)C(=O)O` [Glu*Glu*Glu*Asp-Gln] ({γGlu-γGlu-γGlu}-Asp-Gln-OH; N-terminus and C-terminus assumed), the stability in serum entry in data set [3] is given as “high stability in serum”. In the case of `N[C@@H](CCC(=O)N[C@@H](CCC(=O)N[C@@H](CCC(=O)N[C@@H](CC(=O)O)C(=O)N[C@@H](CCC(=O)O)C(=O)O)C(=O)O)C(=O)O)C(=O)O` [Glu*Glu*Glu*Asp-Glu] ({γGlu-γGlu-γGlu}-Asp-Glu-OH; N-terminus and C-terminus assumed), the stability in serum result in data set [3] was “high stability in serum”. With `C/C=C(/C)C(=O)O[C@H]1C(C)=C2[C@H]([C@@H]1OC(=O)CCCCCCC)[C@@](C)(OC(C)=O)C[C@H](OC(=O)Cc1ccc(O)c(CCCCCNC(=O)[C@H](CC(C)C)NC(=O)[C@H](CCC(N)=O)NC(=O)[C@H](CC(C)C)NC(=O)[C@H](CCCCN)NC(=O)[C@H](CO)NC(=O)[C@H](CO)NC(=O)[C@H](Cc3c[nH]cn3)NC(=O)N3CCOCC3)c1)[C@@]1(O)[C@H]2OC(=O)[C@@]1(C)O` [JHD9784, His-Ser-Ser-Lys-Leu-Gln-Leu-(PhADT)] ({Morpholide-CO}-HSSKLQL-X1), in the data set with LNCaP cells [4], the “cleavage of pro-drug by LNCaP cells” value is “can cleave”. The IC50 with LNCaP cells [5] is 2.5 nM. Take `C/C=C(/C)C(=O)O[C@H]1C(C)=C2[C@H]([C@@H]1OC(=O)CCCCCCC)[C@@](C)(OC(C)=O)C[C@H](OC(=O)CCC)[C@@]1(O)[C@H]2OC(=O)[C@@]1(C)O` [Thapsigargin]: in [6], the Kd is at most 0.0022 nM. Take `C/C=C(/C)C(=O)OC1C(C)=C2[C@H]([C@@H]1OC(=O)CCCCCCC)[C@@](C)(OC(C)=O)CC(OC(=O)CCc1cc(I)c(O)c(CCCCCNC(=O)OC(C)(C)C)c1)[C@@]1(O)[C@H]2OC(=O)[C@@]1(C)O` (stereo partly shown) [compound 14]: the “ability to inhibit the SERCA pump” value at SERCA pump is “maintained potent ability to inhibit the SERCA pump at nanomolar concentrations”. Further, the “potency of SERCA pump inhibition relative to TG (fold less potent)” value on SERCA pump (range of concentrations, compared to TG) is listed as “approximately 4 fold”. Consider “(PhADT)-Glu-yGlu-yGlu-yGlu (PhADT-E[γGlu][γGlu][γGlu]; reading uncertain) [JHD9783]”, for which, in the data set with LNCaP cells [4], the “cleavage of pro-drug by LNCaP cells” value is given as “can cleave”.
